Laboratory results: PubChem BioAssay (NCI)
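Step 1: Grow cells in 96-well plates. Step 2: Expose to compound for 48 hours at 5 concentrations. Step 3: Interpolate endpoints linearly; if unreached, use highest concentration. GI50 = concentration required for 50% inhibition of growth. TGI: total growth inhibition.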

Assays:
Assay in all cases: growth of human tumour cells (NCI), 48 h; in the data active means GI50 below about 0.43 µM; inactive means the rest
[1] = system: SR leukemia
[2] = system: SF-268 CNS
[3] = system: OVCAR-8 ovarian
[4] = system: MDA-MB-435
[5] = system: SF-295 CNS
[6] = system: UO-31 renal
[7] = system: A549 NSCLC
[8] = system: OVCAR-4 ovarian
[9] = system: NCI-H226 lung
[10] = system: DU-145 prostate
[11] = system: NCI-H23 lung
[12] = system: COLO 205 colon
[13] = system: TK-10 renal
[14] = system: IGROV1 ovarian
[15] = system: LOX IMVI melanoma
[16] = system: MALME-3M melanoma
[17] = system: HT29 colon
[18] = system: EKVX NSCLC
[19] = system: HCC-2998 colon
[20] = system: A498 renal
[21] = system: CAKI-1 renal
[22] = system: HCT-116 colon
[23] = system: BT-549 breast
[24] = system: 786-0 renal
[25] = system: CCRF-CEM leukemia
[26] = system: NCI-H460 lung
[27] = system: KM12 colon
[28] = system: SF-539 CNS

[O]=[V]([OH])([OH])[OH]
inactive: GI50 [1] 36.3 µM | GI50 [2] > 100 µM | GI50 [3] > 100 µM | GI50 [4] 79.2 µM | GI50 [5] > 100 µM | GI50 [6] > 100 µM | GI50 [7] > 100 µM | GI50 [8] 54.2 µM | GI50 [9] > 100 µM | GI50 [10] > 100 µM | GI50 [11] > 100 µM | GI50 [12] > 100 µM | GI50 [13] > 100 µM | GI50 [14] > 100 µM | GI50 [15] > 100 µM | GI50 [16] > 100 µM | GI50 [17] > 100 µM | GI50 [18] > 100 µM | GI50 [19] > 100 µM | GI50 [20] > 100 µM | GI50 [21] 25.6 µM | GI50 [22] > 100 µM | GI50 [23] > 100 µM | GI50 [24] > 100 µM | GI50 [25] > 100 µM | GI50 [26] > 100 µM | GI50 [27] > 100 µM | GI50 [28] > 100 µM
> 100 µM: TGI [1] | TGI [2] | TGI [3] | TGI [4] | TGI [5] | TGI [6] | TGI [7] | TGI [8] | TGI [9] | TGI [10] | TGI [11] | TGI [12] | TGI [13] | TGI [14] | TGI [15] | TGI [16] | TGI [17] | TGI [18] | TGI [19] | TGI [20] | TGI [22] | TGI [23] | TGI [24] | TGI [25] | TGI [26] | TGI [27] | TGI [28]
70.6 µM: TGI [21]
